ChEMBL document CHEMBL2380296, “Structure-based design and optimization of 2-aminothiazole-4-carboxamide as a new class of CHK1 inhibitors” (Bioorg Med Chem Lett, 2013)

Legend:
[1] = molecular target: Alpha-2A adrenergic receptor (Homo sapiens) (UniProt P08913); assay: Inhibition of adrenergic alpha-2A receptor (unknown origin) at 1 ug/mL relative to control
[2] = molecular target: Alpha-1A adrenergic receptor (Homo sapiens) (UniProt P35348); assay: Inhibition of adrenergic alpha-1A receptor (unknown origin) at 1 ug/mL relative to control
Alpha-1A adrenergic receptor (Homo sapiens), sequence (P35348 whole entry): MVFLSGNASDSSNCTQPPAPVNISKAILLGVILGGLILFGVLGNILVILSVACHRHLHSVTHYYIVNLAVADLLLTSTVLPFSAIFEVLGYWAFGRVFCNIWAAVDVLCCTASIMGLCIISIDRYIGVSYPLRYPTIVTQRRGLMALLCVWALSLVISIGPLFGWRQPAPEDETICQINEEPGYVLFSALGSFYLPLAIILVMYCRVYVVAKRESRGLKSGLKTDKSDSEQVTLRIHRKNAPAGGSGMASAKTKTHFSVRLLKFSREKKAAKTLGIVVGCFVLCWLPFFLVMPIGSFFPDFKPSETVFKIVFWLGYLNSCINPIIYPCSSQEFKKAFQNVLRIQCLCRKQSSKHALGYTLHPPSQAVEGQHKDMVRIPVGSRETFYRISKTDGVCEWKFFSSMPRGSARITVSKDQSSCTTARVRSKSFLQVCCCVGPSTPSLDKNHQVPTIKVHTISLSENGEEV

[3] = molecular target: Hepatocyte growth factor receptor (Homo sapiens, UniProt P08581); assay: Inhibition of human MET
[4] = molecular target: D(1A) dopamine receptor (Homo sapiens) (UniProt P21728); assay: Inhibition of dopamine D1 receptor (unknown origin) at 2 ug/mL relative to control
[5] = molecular target: Serine/threonine-protein kinase 3 (Homo sapiens, UniProt Q13188); assay: Inhibition of human MST2
[6] = molecular target: Muscarinic acetylcholine receptor M2 (Homo sapiens) (UniProt P08172); assay: Inhibition of muscarinic M2 receptor (unknown origin) at 2 ug/mL relative to control
[7] = molecular target: Testis-specific serine/threonine-protein kinase 2 (Homo sapiens, UniProt Q96PF2); assay: Inhibition of human TSSK2
[8] = molecular target: Interleukin-1 receptor-associated kinase 4 (Homo sapiens, UniProt Q9NWZ3); assay: Inhibition of human IRAK4
[9] = Plasma concentration in rat at 10 mg/kg, po measured at 24 hrs; assay type: ADME, organism-based; set-up: dose 10 mg/kg, route oral
Cytochrome P450 2D6 [10] = molecular target: T1, Cytochrome P450 2D6 (Homo sapiens, UniProt P10635); assay: Time-dependent inhibition of CYP2D6 in human liver microsomes using dextromethorphan as substrate incubated for 30 mins prior to substrate addition measured after 30 mins by LC-MS/MS analysis; assay type: ADME, Microsome
T1 sequence (P10635 whole entry): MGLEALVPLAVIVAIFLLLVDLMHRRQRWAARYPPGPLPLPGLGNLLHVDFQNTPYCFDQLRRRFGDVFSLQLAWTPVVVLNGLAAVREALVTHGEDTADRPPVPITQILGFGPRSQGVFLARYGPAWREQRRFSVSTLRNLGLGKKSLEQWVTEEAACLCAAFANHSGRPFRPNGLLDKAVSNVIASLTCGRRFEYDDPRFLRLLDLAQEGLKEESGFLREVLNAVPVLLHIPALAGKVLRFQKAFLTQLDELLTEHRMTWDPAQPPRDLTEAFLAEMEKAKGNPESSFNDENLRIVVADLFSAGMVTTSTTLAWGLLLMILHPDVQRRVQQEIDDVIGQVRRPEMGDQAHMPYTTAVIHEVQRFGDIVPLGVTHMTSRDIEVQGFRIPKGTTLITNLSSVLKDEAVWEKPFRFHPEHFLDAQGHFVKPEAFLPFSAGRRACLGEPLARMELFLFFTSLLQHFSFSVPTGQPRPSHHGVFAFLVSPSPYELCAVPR

[11] = molecular target: Oxytocin receptor (Homo sapiens) (UniProt P30559); assay: Inhibition of oxytocin receptor (unknown origin) at 2 ug/mL relative to control
Oxytocin receptor (Homo sapiens), sequence (P30559 whole entry): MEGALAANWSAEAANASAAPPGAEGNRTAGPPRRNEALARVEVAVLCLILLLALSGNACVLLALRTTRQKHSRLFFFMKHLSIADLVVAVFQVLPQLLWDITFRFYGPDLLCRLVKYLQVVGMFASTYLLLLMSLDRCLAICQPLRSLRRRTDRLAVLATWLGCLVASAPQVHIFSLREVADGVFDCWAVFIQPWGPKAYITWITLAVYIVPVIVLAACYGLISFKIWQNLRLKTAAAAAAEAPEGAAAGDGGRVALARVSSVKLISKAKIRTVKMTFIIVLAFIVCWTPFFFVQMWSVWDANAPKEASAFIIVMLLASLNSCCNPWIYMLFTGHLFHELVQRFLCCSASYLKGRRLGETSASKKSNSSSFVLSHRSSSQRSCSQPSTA

[12] = Plasma concentration in rat at 10 mg/kg, po measured at 2 hrs; assay type: ADME, organism-based; set-up: dose 10 mg/kg, route oral
[13] = molecular target: Tyrosine-protein kinase Lck (Homo sapiens, UniProt P06239); assay: Inhibition of human LCK
[14] = Plasma concentration in rat at 10 mg/kg, po measured at 4 hrs; assay type: ADME, organism-based; set-up: dose 10 mg/kg, route oral
[15] = molecular target: Cannabinoid receptor 1 (Homo sapiens) (UniProt P21554); assay: Inhibition of CB1 receptor (unknown origin) at 20 ug/mL relative to control
[16] = Cmax in rat at 10 mg/kg, po; assay type: ADME, organism-based; set-up: dose 10 mg/kg, route oral; details: in vivo
[17] = molecular target: Vasopressin V2 receptor (Homo sapiens) (UniProt P30518); assay: Inhibition of vasopressin V2 receptor (unknown origin) at 2 ug/mL relative to control
[18] = molecular target: Ribosomal protein S6 kinase alpha-3 (Homo sapiens, UniProt P51812); assay: Inhibition of human RSK2
Cytochrome P450 2C9 [19] = molecular target: T2, Cytochrome P450 2C9 (Homo sapiens, UniProt P11712); assay: Time-dependent inhibition of CYP2C9 in human liver microsomes using tolbutamide as substrate incubated for 30 mins prior to substrate addition measured after 30 mins by LC-MS/MS analysis; assay type: ADME, Microsome
T2 sequence (P11712 whole entry): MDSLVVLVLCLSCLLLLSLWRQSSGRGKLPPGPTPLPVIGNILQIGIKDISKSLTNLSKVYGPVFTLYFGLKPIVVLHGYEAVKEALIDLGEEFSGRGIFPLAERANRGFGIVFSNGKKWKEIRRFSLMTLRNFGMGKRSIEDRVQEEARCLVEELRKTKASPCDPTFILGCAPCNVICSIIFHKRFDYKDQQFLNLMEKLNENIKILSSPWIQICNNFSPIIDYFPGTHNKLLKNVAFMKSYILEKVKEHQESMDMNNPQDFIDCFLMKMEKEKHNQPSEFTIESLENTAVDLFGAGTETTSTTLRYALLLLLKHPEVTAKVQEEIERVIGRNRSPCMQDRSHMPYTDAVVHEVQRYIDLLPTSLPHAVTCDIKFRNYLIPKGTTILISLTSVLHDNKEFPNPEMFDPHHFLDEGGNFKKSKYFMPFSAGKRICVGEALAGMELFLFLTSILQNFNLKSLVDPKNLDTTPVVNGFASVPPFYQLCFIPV

[20] = molecular target: Insulin-like growth factor 1 receptor (Homo sapiens, UniProt P08069); assay: Inhibition of human IGF1R
[21] = molecular target: Inhibitor of nuclear factor kappa-B kinase subunit beta (Homo sapiens, UniProt O14920); assay: Inhibition of human IKKB
[22] = molecular target: Vasopressin V1b receptor (Homo sapiens) (UniProt P47901); assay: Inhibition of vasopressin V1b receptor (unknown origin) at 2 ug/mL relative to control
[23] = molecular target: Alpha-1B adrenergic receptor (Homo sapiens) (UniProt P35368); assay: Inhibition of adrenergic alpha-1B receptor (unknown origin) at 1 ug/mL relative to control
hERG (KCNH2) [24] = molecular target: T3, hERG (KCNH2) (Homo sapiens, UniProt Q12809); assay: Inhibition of human ERG expressed in mouse L929 cells at 10 uM by IonWorks assay relative to control; assay type: cell-based; details: mouse L929 cells expressing human ERG
T3 sequence (Q12809 whole entry): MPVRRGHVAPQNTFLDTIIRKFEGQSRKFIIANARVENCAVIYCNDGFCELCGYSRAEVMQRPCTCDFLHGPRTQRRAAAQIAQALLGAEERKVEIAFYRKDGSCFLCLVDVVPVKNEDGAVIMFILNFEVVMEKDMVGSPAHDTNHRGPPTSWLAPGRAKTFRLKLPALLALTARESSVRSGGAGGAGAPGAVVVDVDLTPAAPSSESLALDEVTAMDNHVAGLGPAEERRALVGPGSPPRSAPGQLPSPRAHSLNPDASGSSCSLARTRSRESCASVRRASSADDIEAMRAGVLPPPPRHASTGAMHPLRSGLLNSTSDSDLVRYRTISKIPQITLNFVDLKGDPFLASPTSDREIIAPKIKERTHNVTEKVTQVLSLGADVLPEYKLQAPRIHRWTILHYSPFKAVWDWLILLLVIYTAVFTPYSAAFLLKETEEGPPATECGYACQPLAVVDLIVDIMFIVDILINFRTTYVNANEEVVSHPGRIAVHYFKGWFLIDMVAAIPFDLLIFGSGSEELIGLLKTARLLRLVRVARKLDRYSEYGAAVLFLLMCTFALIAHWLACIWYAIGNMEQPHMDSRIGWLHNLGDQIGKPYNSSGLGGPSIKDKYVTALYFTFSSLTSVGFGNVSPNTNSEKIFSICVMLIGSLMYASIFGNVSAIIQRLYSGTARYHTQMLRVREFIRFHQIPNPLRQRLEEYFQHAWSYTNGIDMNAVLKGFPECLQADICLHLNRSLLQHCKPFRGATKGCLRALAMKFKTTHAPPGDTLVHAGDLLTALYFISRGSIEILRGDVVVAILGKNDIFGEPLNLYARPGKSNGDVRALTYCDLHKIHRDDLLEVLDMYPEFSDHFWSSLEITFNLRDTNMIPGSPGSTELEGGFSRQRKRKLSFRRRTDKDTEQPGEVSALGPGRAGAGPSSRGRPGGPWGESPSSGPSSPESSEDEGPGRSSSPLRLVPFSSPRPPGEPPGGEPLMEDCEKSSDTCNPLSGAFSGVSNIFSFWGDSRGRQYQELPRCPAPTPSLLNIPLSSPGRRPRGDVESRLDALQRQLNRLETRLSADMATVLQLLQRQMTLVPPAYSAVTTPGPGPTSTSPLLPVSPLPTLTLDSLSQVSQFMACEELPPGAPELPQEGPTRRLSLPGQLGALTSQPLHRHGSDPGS

[25] = molecular target: Calcium/calmodulin-dependent protein kinase type IV (Homo sapiens, UniProt Q16566); assay: Inhibition of human CAMK4
Cytochrome P450 2D6 [26] = molecular target: T1, Cytochrome P450 2D6; assay: Inhibition of CYP2D6 in human liver microsomes using dextromethorphan as substrate by LC-MS/MS analysis; assay type: ADME, Microsome
[27] = molecular target: Serine/threonine-protein kinase PLK3 (Homo sapiens, UniProt Q9H4B4); assay: Inhibition of human PLK3
[28] = molecular target: 5-hydroxytryptamine receptor 1A (Homo sapiens) (UniProt P08908); assay: Inhibition of 5HT-1A receptor (unknown origin) at 2 ug/mL relative to control
Cytochrome P450 2C9 [29] = molecular target: T2, Cytochrome P450 2C9; assay: Inhibition of CYP2C9 in human liver microsomes using tolbutamide as substrate by LC-MS/MS analysis; assay type: ADME, Microsome
[30] = molecular target: Neuropeptide Y receptor type 5 (Homo sapiens) (UniProt Q15761); assay: Inhibition of NPYY5 receptor (unknown origin) at 2 ug/mL relative to control
[31] = molecular target: Rho-associated protein kinase 2 (Homo sapiens, UniProt O75116); assay: Inhibition of human ROCK2
[32] = molecular target: Tyrosine-protein kinase JAK2 (Homo sapiens, UniProt O60674); assay: Inhibition of human JAK2
[33] = molecular target: D(2) dopamine receptor (Homo sapiens) (UniProt P14416); assay: Inhibition of dopamine D2 receptor (unknown origin) at 2 ug/mL relative to control
[34] = molecular target: Cannabinoid receptor 2 (Homo sapiens) (UniProt P34972); assay: Inhibition of CB2 receptor (unknown origin) at 20 ug/mL relative to control
Cannabinoid receptor 2 (Homo sapiens), sequence (P34972 whole entry): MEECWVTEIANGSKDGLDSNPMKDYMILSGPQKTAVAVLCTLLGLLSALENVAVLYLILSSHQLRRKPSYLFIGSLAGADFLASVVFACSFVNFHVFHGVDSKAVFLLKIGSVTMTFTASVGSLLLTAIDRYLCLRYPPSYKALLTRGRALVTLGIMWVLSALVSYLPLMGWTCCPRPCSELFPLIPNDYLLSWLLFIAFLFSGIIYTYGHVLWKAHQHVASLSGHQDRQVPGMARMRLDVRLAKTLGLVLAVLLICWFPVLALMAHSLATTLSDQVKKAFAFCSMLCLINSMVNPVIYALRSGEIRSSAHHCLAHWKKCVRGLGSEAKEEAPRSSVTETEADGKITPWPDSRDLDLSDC

hERG (KCNH2) [35] = molecular target: T3, hERG (KCNH2); assay: Inhibition of human ERG transfected in CHO cells at 5 ug/mL by rubidium efflux assay relative to control; assay type: cell-based; details: CHO cells transfected with human ERG
Cytochrome P450 3A4 = Cytochrome P450 3A4 (Homo sapiens, UniProt P08684); assay: Time-dependent inhibition of CYP3A4 in human liver microsomes using 6beta-hydroxylase as substrate incubated for 30 mins prior to substrate addition measured after 30 mins by LC-MS/MS analysis; assay type: ADME, Microsome
[36] = molecular target: Serine/threonine-protein kinase Nek2 (Homo sapiens, UniProt P51955); assay: Inhibition of human NEK2
[37] = Plasma concentration in rat at 10 mg/kg, po measured at 6 hrs; assay type: ADME, organism-based; set-up: dose 10 mg/kg, route oral
[38] = molecular target: Mitogen-activated protein kinase 1 (Homo sapiens, UniProt P28482); assay: Inhibition of human ERK2
Mitogen-activated protein kinase 1, sequence (P28482 whole entry): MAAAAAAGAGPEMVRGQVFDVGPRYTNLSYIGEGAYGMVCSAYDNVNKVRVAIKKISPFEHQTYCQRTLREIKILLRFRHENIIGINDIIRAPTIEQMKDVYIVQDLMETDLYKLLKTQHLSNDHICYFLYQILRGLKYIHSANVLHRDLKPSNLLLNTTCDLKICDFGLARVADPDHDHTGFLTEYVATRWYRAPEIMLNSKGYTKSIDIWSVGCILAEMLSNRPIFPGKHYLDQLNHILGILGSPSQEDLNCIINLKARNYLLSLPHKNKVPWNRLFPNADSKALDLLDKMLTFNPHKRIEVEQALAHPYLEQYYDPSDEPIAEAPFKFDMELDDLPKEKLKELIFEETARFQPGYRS

[39] = molecular target: Adenosine receptor A2a (Homo sapiens) (UniProt P29274); assay: Inhibition of adenosine A2A receptor (unknown origin) at 2 ug/mL relative to control
[40] = molecular target: Histamine H1 receptor (Homo sapiens) (UniProt P35367); assay: Inhibition of histamine H1 receptor (unknown origin) at 1 ug/mL relative to control
Histamine H1 receptor (Homo sapiens), sequence (P35367 whole entry): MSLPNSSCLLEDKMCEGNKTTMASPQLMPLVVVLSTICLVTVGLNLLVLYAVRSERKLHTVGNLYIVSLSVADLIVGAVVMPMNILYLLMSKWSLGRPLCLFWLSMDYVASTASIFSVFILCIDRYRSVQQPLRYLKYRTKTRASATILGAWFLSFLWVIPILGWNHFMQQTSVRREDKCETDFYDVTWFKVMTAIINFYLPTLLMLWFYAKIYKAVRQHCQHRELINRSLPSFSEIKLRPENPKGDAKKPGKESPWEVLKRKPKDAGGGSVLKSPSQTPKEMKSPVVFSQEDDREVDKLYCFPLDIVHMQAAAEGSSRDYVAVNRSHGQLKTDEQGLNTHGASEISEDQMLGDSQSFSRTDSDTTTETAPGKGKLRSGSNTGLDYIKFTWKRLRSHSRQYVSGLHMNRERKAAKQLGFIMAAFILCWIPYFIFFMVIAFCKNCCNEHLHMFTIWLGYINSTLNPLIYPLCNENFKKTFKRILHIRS

[41] = molecular target: Muscarinic acetylcholine receptor M5 (Homo sapiens) (UniProt P08912); assay: Inhibition of muscarinic M5 receptor (unknown origin) at 2 ug/mL relative to control
[42] = molecular target: Vasopressin V1a receptor (Homo sapiens) (UniProt P37288); assay: Inhibition of vasopressin V1a receptor (unknown origin) at 2 ug/mL relative to control
hERG (KCNH2) [43] = molecular target: T3, hERG (KCNH2); assay: Inhibition of human ERG expressed in mouse L929 cells at 1 uM by IonWorks assay relative to control; assay type: cell-based; details: mouse L929 cells expressing human ERG

Alpha-2A adrenergic receptor (Homo sapiens), sequence (P08913 whole entry): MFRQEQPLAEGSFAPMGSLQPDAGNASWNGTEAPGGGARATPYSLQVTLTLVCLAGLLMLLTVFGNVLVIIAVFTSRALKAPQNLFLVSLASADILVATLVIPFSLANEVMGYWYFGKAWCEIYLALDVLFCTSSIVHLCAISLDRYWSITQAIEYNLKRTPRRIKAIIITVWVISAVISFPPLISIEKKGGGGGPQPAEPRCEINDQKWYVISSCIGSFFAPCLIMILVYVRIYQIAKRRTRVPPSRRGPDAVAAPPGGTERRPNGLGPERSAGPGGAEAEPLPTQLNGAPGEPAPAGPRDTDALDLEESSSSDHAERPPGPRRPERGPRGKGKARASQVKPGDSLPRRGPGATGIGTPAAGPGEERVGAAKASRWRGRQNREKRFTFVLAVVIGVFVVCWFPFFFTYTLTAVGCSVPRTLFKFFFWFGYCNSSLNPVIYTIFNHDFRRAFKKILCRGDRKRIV

COc1ccc2c(c1)C(=O)N(c1nc(C(=O)Nc3cnccc3N3CCNCC3)cs1)C2
inhibition [1]: 16.1%
inhibition [2]: 23.7%
IC50 [3]: > 30 µM
inhibition [4]: 2.8%
IC50 [5]: 2.1 µM
inhibition [6]: 3.5%
IC50 [7]: 8.9 µM
IC50 [8]: 1.1 µM
concentration at 24 h [9]: 6.29 ng/mL
IC50 (Cytochrome P450 2D6 [10]): > 30 µM
inhibition [11]: 25.7%
concentration at 2 h [12]: 150 ng/mL
IC50 [13]: > 30 µM
concentration at 4 h [14]: 183 ng/mL
inhibition [15]: 22.6%
Cmax [16]: 600 nM
inhibition [17]: 20.4%
IC50 [18]: 1.3 µM
IC50 (Cytochrome P450 2C9 [19]): > 30 µM
IC50 [20]: 30 µM
IC50 [21]: > 30 µM
inhibition [22]: 6.1%
inhibition [23]: 21.8%
inhibition at 10 µM (hERG (KCNH2) [24]): 42%
IC50 [25]: 26 µM
IC50 (Cytochrome P450 2D6 [26]): > 30 µM
IC50 [27]: > 30 µM
inhibition [28]: 12.8%
IC50 (Cytochrome P450 2C9 [29]): > 30 µM
inhibition [30]: 13.2%
IC50 [31]: 6.8 µM
IC50 [32]: 21 µM
inhibition [33]: 16.9%
inhibition [34]: 25.1%
inhibition at 5 ug/mL (hERG (KCNH2) [35]): 65%
IC50 (Cytochrome P450 3A4): > 30 µM
IC50 [36]: 9.5 µM
concentration at 6 h [37]: 252 ng/mL
IC50 [38]: 20 µM
inhibition [39]: -5.8%
inhibition [40]: 21%
inhibition [41]: 14.4%
inhibition [42]: 10.9%
inhibition at 1 µM (hERG (KCNH2) [43]): 4%
